Assay results: patent US9708334B2, “Substituted 2,4,5,6-tetrahydropyrrolo[3,4-c]pyrazole and 4,5,6,7-tetrahydro-2H-pyrazolo[4,3-c]pyridine compounds as GlyT1 inhibitors” (DART NEUROSCIENCE (CAYMAN) LTD., priority 2014, dated 2017)

Molecular target: T1, GlyT1 (Homo sapiens, UniProt P48067)
T1 construct: expressed in transfected cells
T1 sequence (P48067 1-706): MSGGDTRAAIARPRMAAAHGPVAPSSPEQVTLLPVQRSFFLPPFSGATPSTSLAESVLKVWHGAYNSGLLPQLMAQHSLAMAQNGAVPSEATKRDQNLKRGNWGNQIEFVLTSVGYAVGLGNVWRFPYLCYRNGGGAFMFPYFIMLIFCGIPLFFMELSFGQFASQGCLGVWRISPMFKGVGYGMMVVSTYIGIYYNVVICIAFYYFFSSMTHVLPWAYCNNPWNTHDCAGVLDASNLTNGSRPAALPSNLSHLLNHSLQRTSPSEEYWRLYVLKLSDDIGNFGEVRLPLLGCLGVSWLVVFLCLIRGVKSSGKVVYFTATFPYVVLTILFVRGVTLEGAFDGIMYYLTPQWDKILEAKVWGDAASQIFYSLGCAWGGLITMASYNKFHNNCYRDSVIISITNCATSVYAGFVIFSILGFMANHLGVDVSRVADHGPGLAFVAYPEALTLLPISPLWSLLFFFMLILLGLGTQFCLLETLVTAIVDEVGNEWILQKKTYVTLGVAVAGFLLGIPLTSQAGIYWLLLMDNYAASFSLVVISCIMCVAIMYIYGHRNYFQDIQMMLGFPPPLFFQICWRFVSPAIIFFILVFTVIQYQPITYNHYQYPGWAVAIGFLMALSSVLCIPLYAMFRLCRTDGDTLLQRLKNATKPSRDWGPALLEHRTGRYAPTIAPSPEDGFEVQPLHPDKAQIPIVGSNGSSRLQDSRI
Assay: Glycine Transporter 1 (GlyT1) uptake assay, scintillation proximity assay of [14C]-glycine uptake
Format: cell-based
Conditions: SPA, four parameter logistic fit, read-out: GlyT1 (pIC50) (converted)
Summary of the method: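 IC50 values derive from four-parameter logistic curves fitted to dose-response data. Uptake of [14C]-glycine measured in scintillation proximity format.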

IC50	Compound
100 to 1000 nM	Cc1nc(-n2cc3c(n2)CN(C(=O)c2cc(C#N)ccc2OC(C)C)C3)ccc1F [Example 339, 3-[2-(5-Fluoro-6-methylpyridin-2-yl)-2H 4H 5H 6H-pyrrolo[3,4-c]pyrazole-5-carbonyl]-4-(propan-2-yloxy)benzonitrile]
100 to 1000 nM	C[C@H](Oc1ccc(S(C)(=O)=O)cc1C(=O)N1Cc2cn(-c3ccc(F)cc3)nc2C1)C(F)(F)F [Example 340]
< 100 nM	CC(C)(C)COc1ccc(S(C)(=O)=O)cc1C(=O)N1Cc2cn(-c3ccc(F)cc3)nc2C1 [Example 341, 5-[2-(2 2-Dimethylpropoxy)-5-methanesulfonylbenzoyl]-2-(4-fluorophenyl)-2H 4H 5H 6H-pyrrolo[3,4-c]pyrazole]
100 to 1000 nM	C[C@H](Oc1ccc(C#N)cc1C(=O)N1Cc2cn(-c3ccc(F)cn3)nc2C1)C(F)(F)F [Example 342, 3-[2-(5-Fluoropyridin-2-yl)-2H 4H 5H 6H-pyrrolo[3,4-c]pyrazole-5-carbonyl]-4-{[(2S)-1 1 1-trifluoropropan-2-yl]oxy}benzonitrile]
< 100 nM	C[C@H](Oc1ccc(C#N)cc1C(=O)N1Cc2cn(-c3cncc(F)c3)nc2C1)C(F)(F)F [Example 343]
100 to 1000 nM	Cc1cccc(-n2cc3c(n2)CN(C(=O)c2cc(C#N)ccc2O[C@@H](C)C(F)(F)F)C3)n1 [Example 344, 3-[2-(6-Methylpyridin-2-yl)-2H 4H 5H 6H-pyrrolo[3,4-c]pyrazole-5-carbonyl]-4-{[(2S)-1 1 1-trifluoropropan-2-yl]oxy}benzonitrile]
100 to 1000 nM	Cc1nc(-n2cc3c(n2)CN(C(=O)c2cc(C#N)ccc2O[C@@H](C)C(F)(F)F)C3)ccc1F [Example 345, 3-[2-(5-Fluoro-6-methylpyridin-2-yl)-2H 4H 5H 6H-pyrrolo[3,4-c]pyrazole-5-carbonyl]-4-{[(2S)-1 1 1-trifluoropropan-2-yl]oxy}benzonitrile]
100 to 1000 nM	Cc1cc(F)cnc1-n1cc2c(n1)CN(C(=O)c1cc(C#N)ccc1O[C@@H](C)C(F)(F)F)C2 [Example 346, 3-[2-(5-Fluoro-3-methylpyridin-2-yl)-2H 4H 5H 6H-pyrrolo[3,4-c]pyrazole-5-carbonyl]-4-{[(2S)-1 1 1-trifluoropropan-2-yl]oxy}benzonitrile]
100 to 1000 nM	Cc1ccnc(-n2cc3c(n2)CN(C(=O)c2cc(C#N)ccc2O[C@@H](C)C(F)(F)F)C3)c1 [Example 347, 3-[2-(4-Methylpyridin-2-yl)-2H 4H 5H 6H-pyrrolo[3,4-c]pyrazole-5-carbonyl]-4-{[(2S)-1 1 1-trifluoropropan-2-yl]oxy}benzonitrile]
100 to 1000 nM	Cc1cc(-n2cc3c(n2)CN(C(=O)c2cc(C#N)ccc2O[C@@H](C)C(F)(F)F)C3)ncc1F [Example 348]
100 to 1000 nM	C[C@H](Oc1ccc(C#N)cc1C(=O)N1Cc2cn(-c3ccccn3)nc2C1)C(F)(F)F [Example 349, 3-[2-(Pyridin-2-yl)-2H 4H 5H 6H-pyrrolo[3,4-c]pyrazole-5-carbonyl]-4-{[(2 S)-1 1 1-trifluoropropan-2-yl]oxy}benzonitrile]
< 100 nM	CS(=O)(=O)c1ccc(C2CCCC2)c(C(=O)N2Cc3cn(-c4ccc(F)cc4)nc3C2)c1 [Example 350, 5-(2-Cyclopentyl-5-methanesulfonylbenzoyl)-2-(4-fluorophenyl)-2H 4H 5H 6H-pyrrolo[3,4-c]pyrazole]
100 to 1000 nM	Cc1ncc(-n2cc3c(n2)CN(C(=O)c2cc(C#N)ccc2O[C@@H](C)C(F)(F)F)C3)cc1F [Example 351, 3-[2-(5-Fluoro-6-methylpyridin-3-yl)-2H 4H 5H 6H-pyrrolo[3,4-c]pyrazole-5-carbonyl]-4-{[(2 S)-1 1 1-trifluoropropan-2-yl]oxy}benzonitrile]
100 to 1000 nM	Cc1c(F)cncc1-n1cc2c(n1)CN(C(=O)c1cc(C#N)ccc1O[C@@H](C)C(F)(F)F)C2 [Example 352, 3-[2-(5-Fluoro-4-methylpyridin-3-yl)-2H 4H 5H 6H-pyrrolo[3,4-c]pyrazole-5-carbonyl]-4-{[(2 S)-1 1 1-trifluoropropan-2-yl]oxy}benzonitrile]
< 100 nM	Cc1cc(-n2cc3c(n2)CN(C(=O)c2cc(C#N)ccc2O[C@@H](C)C(F)(F)F)C3)ccn1 [Example 353, 3-[2-(2-Methylpyridin-4-yl)-2H 4H 5H 6H-pyrrolo[3,4-c]pyrazole-5-carbonyl]-4-{[(2S)-1 1 1-trifluoropropan-2-yl]oxy}benzonitrile]
1000 to 10000 nM	Cc1ncc(F)cc1-n1cc2c(n1)CN(C(=O)c1cc(C#N)ccc1O[C@@H](C)C(F)(F)F)C2 [Example 354, 3-[2-(5-Fluoro-2-methylpyridin-3-yl)-2H 4H 5H 6H-pyrrolo[3,4-c]pyrazole-5-carbonyl]-4-{[(2S)-1 1 1-trifluoropropan-2-yl]oxy}benzonitrile]
< 100 nM	Cc1cc(-n2cc3c(n2)CN(C(=O)c2cc(S(C)(=O)=O)ccc2O[C@@H](C)C(F)(F)F)C3)ccn1 [Example 356, 4-[5-(5-Methanesulfonyl-2-{[(2S)-1 1 1-trifluoropropan-2-yl]oxy}benzoyl)-2H 4H 5H 6H-pyrrolo[3,4-c]pyrazol-2-yl]-2-methylpyridine]
< 100 nM	Cc1ccnc(-n2cc3c(n2)CN(C(=O)c2cc(S(C)(=O)=O)ccc2O[C@@H](C)C(F)(F)F)C3)c1 [Example 357, 2-[5-(5-Methanesulfonyl-2-{[(2S)-1 1 1-trifluoropropan-2-yl]oxy}benzoyl)-2H 4H 5H 6H-pyrrolo[3,4-c]pyrazol-2-yl]-4-methylpyridine]
< 100 nM	Cc1cc(-n2cc3c(n2)CN(C(=O)c2cc(S(C)(=O)=O)ccc2O[C@@H](C)C(F)(F)F)C3)ncc1F [Example 359, 5-Fluoro-2-[5-(5-methanesulfonyl-2-{[(2S)-1 1 1-trifluoropropan-2-yl]oxy}benzoyl)-2H 4H 5H 6H-pyrrolo[3,4-c]pyrazol-2-yl]-4-methylpyridine]
< 100 nM	Cc1cccc(-n2cc3c(n2)CN(C(=O)c2cc(S(C)(=O)=O)ccc2O[C@@H](C)C(F)(F)F)C3)n1 [Example 360, 2-[5-(5-Methanesulfonyl-2-{[(2S)-1 1 1-trifluoropropan-2-yl]oxy}benzoyl)-2H 4H 5H 6H-pyrrolo[3,4-c]pyrazol-2-yl]-6-methylpyridine]
100 to 1000 nM	Cc1cc(F)cnc1-n1cc2c(n1)CN(C(=O)c1cc(S(C)(=O)=O)ccc1O[C@@H](C)C(F)(F)F)C2 [Example 361, 5-Fluoro-2-[5-(5-methanesulfonyl-2-{[(2S)-1 1 1-trifluoropropan-2-yl]oxy}benzoyl)-2H 4H 5H 6H-pyrrolo[3,4-c]pyrazol-2-yl]-3-methylpyridine]
< 100 nM	Cc1nc(-n2cc3c(n2)CN(C(=O)c2cc(S(C)(=O)=O)ccc2O[C@@H](C)C(F)(F)F)C3)ccc1F [Example 362, 3-Fluoro-6-[5-(5-methanesulfonyl-2-{[(2S)-1 1 1-trifluoropropan-2-yl]oxy}benzoyl)-2H 4H 5H 6H-pyrrolo[3,4-c]pyrazol-2-yl]-2-methylpyridine]
< 100 nM	CS(=O)(=O)c1ccc(N2CCCCC2)c(C(=O)N2Cc3cn(-c4ccc(F)cc4)nc3C2)c1 [Example 363, 1-{2-[2-(4-Fluorophenyl)-2H 4H 5H 6H-pyrrolo[3,4-c]pyrazole-5-carbonyl]-4-methanesulfonylphenyl}piperidine]
< 100 nM	COc1cc(-n2cc3c(n2)CN(C(=O)c2cc(C#N)ccc2O[C@@H](C)C(F)(F)F)C3)ccn1 [Example 364, 3-[2-(2-Methoxypyridin-4-yl)-2H 4H 5H 6H-pyrrolo[3,4-c]pyrazole-5-carbonyl]-4-{[(2S)-1 1 1-trifluoropropan-2-yl]oxy}benzonitrile]
1000 to 10000 nM	COc1cc(-n2ncc3c2CN(C(=O)c2cc(C#N)ccc2O[C@@H](C)C(F)(F)F)C3)ccn1 [Example 365, 3-[1-(2-Methoxypyridin-4-yl)-1H 4H 5H 6H-pyrrolo[3,4-c]pyrazole-5-carbonyl]-4-{[(2S)-1 1 1-trifluoropropan-2-yl]oxy}benzonitrile]
1000 to 10000 nM	COc1cc(-n2ncc3c2CN(C(=O)c2cc(C#N)ccc2OC(C)C)C3)ccn1 [Example 366, 3-[1-(2-Methoxypyridin-4-yl)-1H 4H 5H 6H-pyrrolo[3,4-c]pyrazole-5-carbonyl]-4-(propan-2-yloxy)benzonitrile]
< 100 nM	CCc1cc(-n2cc3c(n2)CN(C(=O)c2cc(C#N)ccc2O[C@@H](C)C(F)(F)F)C3)ccn1 [Example 367, 3-[2-(2-Ethylpyridin-4-yl)-2H 4H 5H 6H-pyrrolo[3,4-c]pyrazole-5-carbonyl]-4-{[(2S)-1 1 1-trifluoropropan-2-yl]oxy}benzonitrile]
< 100 nM	CCc1cc(-n2cc3c(n2)CN(C(=O)c2cc(C#N)ccc2OC(C)C)C3)ccn1 [Example 368, 3-[2-(2-Ethylpyridin-4-yl)-2H 4H 5H 6H-pyrrolo[3,4-c]pyrazole-5-carbonyl]-4-(propan-2-yloxy)benzonitrile]
< 100 nM	COc1cc(-n2cc3c(n2)CN(C(=O)c2cc(C#N)ccc2OC(C)C)C3)ccn1 [Example 369, 3-[2-(2-Methoxypyridin-4-yl)-2H 4H 5H 6H-pyrrolo[3,4-c]pyrazole-5-carbonyl]-4-(propan-2-yloxy)benzonitrile]
